# Assay results: patent publication US20240027479A1, “A Comprehensive Breath Test that Confirms Recent Use of Inhaled Cannabis within the Impairment Window” (RCU Labs, Inc., priority 2018, published 2024)
# Where “and” joins values, the source holds several entries; their conditions need not be identical. Equal entries are not always repeated.
# What was measured:
# [1] = Cannabinoid half-lives in exhaled breath, multi-point breath sampling; type: in vivo, human; conditions: for Cannabinoid Half-Lives (min) in breath, back-to-back sampling: individual subject
# Procedure: (§1) The positive recent use test results outside of the three-hour impairment window based on blood sampling alone led to the incorporation of a second testing matrix, exhaled breath, to strengthen the results of the test method so that cannabis users who are within the impairment window after smoking can be more accurately identified. For this purpose, a total of 44 additional subjects were evaluated in a smoking study in which both exhaled breath and blood samples were collected and then analyzed by LC-HRMS for cannabinoids and Δ^9-THC metabolites. As with the 48-subject blood-based study, subjects were given a 500-mg cannabis cigarette to smoke, and breath and blood samples were collected at various time points before and after smoking.
# These included the presence of CBN, CBC, CBG, Δ^9-THCV, and CBGA, and short half-lives (<60 minutes) for Δ^9-THC, CBN, CBC, CBG, and Δ^9-THCV (see Table 5 below). […] Pre-smoking, half-lives were calculable for Δ^9-THC in only three subjects.
# Evidence of recent cannabis use by inhalation through smoking or vaping dissipates rapidly in exhaled breath, and thus allowing 20 minutes between breath samplings, which was employed in the blood-based study and for most of the subjects in the blood and breath-based study, may result in the loss of valuable data. In the last nine subjects involved in the exhaled breath study, a back-to-back sample collection strategy was employed whereby two exhaled breath samples were collected in quick succession at 20 and 40 minutes post-smoking. Approximately two minutes elapsed between the collection of each sample. The very short half-lives observed for Δ^9-THC, CBN, and other cannabinoids (approximately five minutes or less) in exhaled breath would allow for rapid sampling (see Table 6 below).
# [2] = Presence of cannabinoids in exhaled breath before and after smoking (LC-HRMS); type: in vivo, human
# Procedure: as §1
# [3] = separate 20-subject and 23-subject studies (Lynch; Olla); cited from earlier work
# [4] = Breath/blood Δ^9-THC ratio; conditions: all 44 subjects
# Source text: We hypothesized that the incorporation of both exhaled breath and blood into a comprehensive recent cannabis use test would confirm recent use of inhaled cannabis within the impairment window, improving the accuracy of the two-point breath testing method. For this purpose, blood samples were collected from the 44 subjects in addition to breath samples and analyzed for Δ^9-THC and other cannabinoids. […] This ratio was computed by dividing the Δ^9-THC peak area ratio to the internal standard in breath by the corresponding peak area ratio in blood.
# [5] = Cannabinoids and Δ^9-THC metabolites in capillary blood (LC-HRMS); conditions: pre-smoking
# Source text: The complex nature of cannabinoid pharmacokinetics and pharmacodynamics calls for a new approach for effectively determining recent use of cannabis within the impairment window. We sought to develop a multiple-parameter test based on pharmacological changes in Δ^9-THC and its metabolites in blood over time. This approach requires the collection of two samples separated by a known time interval, which is a critical difference compared to current blood testing methods that rely on the collection of a single sample. The two-sample strategy makes possible the detection of Δ^9-THC in its distribution phase where the half-life is very short [Moeller M R. et al., J Forensic Sci 37:969-83 (1992); Wall M E. et al., Clin Pharmacol Ther 34:352-63 (1983)], which occurs only within the first few hours after smoking, and for the evaluation of how Δ^9-THC metabolite levels in blood are changing with time relative to Δ^9-THC. A liquid chromatography high-resolution mass spectrometry (LC-HRMS) bioanalytical method for the quantification of cannabinoids in microsamples (50 μL) of whole blood was developed and validated for this purpose [DeGregorio M W. et al., J AOAC Int 103:725-35 (2020)].
# A total of 92 subjects were included in clinical trials designed to evaluate the feasibility of the described method for determining recent cannabis use (blood-based study in 48 subjects) and recent cannabis use and impairment (breath- and blood-based study in 44 subjects). Each subject was given a single cannabis cigarette and instructed to smoke as much of it as possible within a 10-minute period. Cigarettes containing 500 mg of dried cannabis flower were prepared immediately before each smoking session. During the studies, subjects were given a variety of cannabis chemovars to smoke, with Δ^9-THC content ranging from a low of 8.5% to a high of 28.4%. A wide variety of chemovars was included to account for the variability in Δ^9-THC potencies available in numerous cannabis retail establishments in the various U.S. states where recreational and/or medicinal cannabis has been legalized. Capillary blood samples ([…] collected at various time points prior to smoking and up to 200 minutes after smoking, were obtained from a total of 92 subjects using a variety of methods including lancets and two types of automated blood collection devices. Exhaled breath samples were collected from a total of 44 subjects at various time points prior to smoking and up to 240 minutes post-smoking. Breath samples were collected using devices equipped with electrostatic polymer filters and that are designed to collect approximately 20 L of exhaled breath through normal breathing. The time required for breath sample collection was approximately 2-3 minutes. A total of 74 subjects were asked to self-assess their level of impairment before smoking and at each designated sampling time point after smoking based on a scale ranging from 0 (not impaired) to 10 (very impaired) as shown in FIG. 2. As a physical indicator of impairment, 44 subjects were evaluated for horizontal gaze nystagmus.
# One of the first endpoints investigated during clinical development of the recent use test method was whether there is any relationship between blood Δ^9-THC levels and impairment. Prior to smoking, Δ^9-THC blood concentrations were evaluated in a group of 30 subjects before and up to 200 minutes after smoking a 500-mg cannabis cigarette and compared to a common legal limit (5 ng/mL) for establishing driver impairment due to cannabis.
# [6] = Stability of target analytes in the breath collection device; type: physicochemical
# Source text: In particular, CBN, CBG, and Δ^9-THCV all have a much greater incidence in breath during peak impairment (the first hour after smoking) compared to pre-smoking. […] Stability of the analytes within the breath collection devices was previously established (see Table 4 below).
structure (smiles),measurement,setting,value
"CCCCCc1cc(O)c2c(c1)OC(C)(C)[C@@H]1CCC(C)=C[C@@H]21 [Δ^9-THC, Δ^9-tetrahydrocannabinol]",Average Half-Life (minutes ± SD) in breath,[1]; 0-10 Minutes Post-Smoking,4.4 ± 2.2 min
same,Average Half-Life (minutes ± SD) in breath,[1]; 0-20 Minutes Post-Smoking,4.2 ± 2.1 min
same,Average Half-Life (minutes ± SD) in breath,[1]; 20-40 Minutes Post-Smoking,8.1 ± 2.3 min
same,Average Half-Life (minutes ± SD) in breath,[1]; 20-60 Minutes Post-Smoking,12.8 ± 8.8 min
same,"Cannabinoid Half-Lives (min) in breath, back-to-back sampling, Average",[1]; 20 Minutes Post-Smoking,3.5 min and 2.2 min
same,"Cannabinoid Half-Lives (min) in breath, back-to-back sampling",[1]; 20 Minutes Post-Smoking,1.9 min (2×) and 2.3 min and 2.1 min and 2.9 min and 2.8 min and 1.0 min and 1.4 min and 1.6 min and 7.3 min and 3.8 min and 11.8 min and 1.2 min and 0.9 min
same,Average Half-Life (minutes ± SD) in breath,[1]; 40-60 Minutes Post-Smoking,24.4 ± 25.4 min
same,"Cannabinoid Half-Lives (min) in breath, back-to-back sampling, Average",[1]; 40 Minutes Post-Smoking,6.1 min
same,"Cannabinoid Half-Lives (min) in breath, back-to-back sampling",[1]; 40 Minutes Post-Smoking,2.2 min and 9.9 min and 3.7 min and 5.9 min and 8.6 min
same,Average Half-Life (minutes ± SD) in breath,[1]; 60-80 Minutes Post-Smoking,35.0 ± 41.7 min
same,Average Half-Life (minutes ± SD) in breath,[1]; Pre-Smoking,28.8 ± 28.7 min
same,half-lives observed in exhaled breath,"[1]; approximate, summary statement",five
same,"Presence in exhaled breath, Percent (%) Positivity",[2]; >60 minutes after smoking,(92.5%)
same,"Presence in exhaled breath, positive/evaluable subjects",[2]; >60 minutes after smoking,37/40
same,"Presence in exhaled breath, positive/evaluable subjects",[2]; Baseline (Pre-smoking),23/34
same,"Presence in exhaled breath, Percent (%) Positivity",[2]; ≤60 minutes after smoking,(100%)
same,"Presence in exhaled breath, positive/evaluable subjects",[2]; ≤60 minutes after smoking,40/40
same,pre-smoking detection rates of Δ^9-THC in breath,[3],100%
same,breath/blood Δ^9-THC ratio,[4]; immediately after smoking,> 2
same,breath/blood Δ^9-THC ratio,[4]; within the first hour after smoking,≥ 2
same,detection in subjects' blood samples at baseline prior to smoking,[5],detected
same,average baseline Δ^9-THC concentration in blood,"[5]; 12-24 h abstinence, n=30",10.5 ± 15 ng/mL
same,baseline Δ^9-THC levels in blood,[5]; 16 of 30 subjects,exceeded 5 ng/mL
same,median baseline Δ^9-THC concentration in blood,[5]; n=30,6.4 ng/mL
same,Analyte Stability (%) at Room Temperature (20-25° C.),"[6]; Day 3, breath collection device",91.3%
same,Analyte Stability (%) at Room Temperature (20-25° C.),"[6]; Day 7, breath collection device",81.2%
same,Analyte Stability (%) at Room Temperature (20-25° C.),"[6]; Day 10, breath collection device",82.9%
same,Analyte Stability (%) at Room Temperature (20-25° C.),"[6]; Day 14, breath collection device",66.2%
same,Analyte Stability (%) at Room Temperature (20-25° C.),"[6]; Day 30, breath collection device",55.6%
